Data as given in patent publication US4096259A, “Non-amphetaminic psychostimulating compositions of 1,4-disubstituted piperazines” (priority 1975, dated 1978).

Experiments:
[1] = Acute toxicity (LD50) in mice, per os; conditions: mouse, in vivo, po
Description: Acute toxicity was studied by determining the LD50 in mice, the derivatives being administered per os.

[2] = test system: exploration response in mice; test: Psychostimulating activity: increase of exploration response in mice (actimetry); assay type: in vivo; conditions: Mus musculus, po, per os, dose which increases exploration response by 50%
Description: The psychostimulating activity was studied by determining the dose which increases the exploration response in mice (actimetry) by 50% (ED50),according to the method described by BOISSIER J.R. and SIMON P. (Arc. Int. Pharmacolyn, 1965, 212-221158).

[3] = Group toxicity (LD50 grouped mice / LD50 isolated mice); conditions: mouse, in vivo
[4] = test system: mortality with pentetrazole in mice; test: Potentiation of mortality with pentetrazole in mice; assay type: in vivo; conditions: per os
[5] = test system: ptose with reserpine in mice; test: Ptose antagonism with reserpine in mice; assay type: in vivo; conditions: Mus musculus, po, per os
sleep in mice = test: Anti-sleep activity in mice; assay type: in vivo
[6] = test system: dog cardiovascular system; test: Secondary action on the dog cardiovascular system, intravenous; assay type: in vivo; conditions: intravenous administration
Anorectic action in rats = assay type: in vivo
aggressiveness in mice = test: Aggressiveness in mice in the electric struggle test; assay type: in vivo; conditions: Mus musculus, po, per os, read-out: increase in aggressiveness in the electric struggle test ED50
[7] = Chronic toxicity in rats, oral; assay type: in vivo; conditions: 6 out of 7 days
[8] = test system: neurotic depression, neurasthenia and school overwork; test: Clinical test in neurotic depression, neurasthenia and school overwork; assay type: in vivo, adults; conditions: 30 mg daily oral, one month
Protocol: (§1) By way of example, clinical tests were carried out on derivatives N° 5 and 21.
Derivative N° 5 was administered at a dose of 30 mg daily in three oral administrations of 10 mg to 6 adults treated for neurotic depression, neurasthenia and school overwork. The following results were obtained after treatment for one month: […]

rat isolated duodenum = test: In vitro papaverine spasmolytic activity: duodenum contractions in rats induced by barium chloride; conditions: for Spasmolytic activity (papaverine hydrochloride = 1): in vitro, rat duodenum, barium chloride, relative to papaverine hydrochloride = 1
Protocol: The papaverine spasmolytic activity was measured "in vitro" by the concentration ratio: active principle/papaverine hydrochloride concentration, which reduces duodenum contractions in rats, induced by barium chloride, by 50% according to the method of POMARET J. C., SERGANT - ODY M., POURRIAS B. and HUGUET G. (Therapie, 1969, 24, 109-143).
(§2) Table V below gives, by way of example, the complementary pharmacological activities such as antiserotonin, adrenolytic and atropinic activities for derivatives N° 21, 23 and 33, the spasmolytic activity of which is the greatest for the rat isolated duodenum.

rabbit aorta = test: In vitro spasmolytic action on the rabbit aorta; conditions: papaverine hydrochloride = 1
Description: as §2

rabbit isolated ear = test: In vitro spasmolytic action on the rabbit isolated ear; conditions: papaverine hydrochloride = 1
Description: as §2

paw vessels of the dog = test: In vivo spasmolytic action on paw vessels of the dog; conditions: papaverine hydrochloride = 1
Description: as §2

[9] = test system: female rat uterus in oestrus; test: In vitro anti-serotonin activity on the female rat uterus in oestrus; conditions: Methysergide = 1
Description: as §2

[10] = test system: Guinea-pig seminal vesicle; test: In vitro adrenolytic action on the Guinea-pig seminal vesicle; conditions: Yohimbine hydrochloride = 1
Description: as §2

Guinea-pig ileum = test: In vitro atropinic action on the Guinea-pig ileum; conditions: Atropine sulfate = 1
Description: as §2

[11] = test system: arteritis of the lower limbs, cerebral vascular sclerosis, sequelae of hemiplegia; test: Clinical test in arteritis of the lower limbs, cerebral vascular sclerosis, sequelae of hemiplegia; assay type: in vivo, adults; conditions: 15 mg/day oral, one month
Protocol: as §1

[12] = cerebral vascular sclerosis, 4 cases

SMILES | LD50 [1] [mg/kg] | ED50 [2] [mg/kg] | selectivity ratio [3] | Potentiation of mortality with pentetrazole in mice ED50 [4] [mg/kg] | ED50 [5] [mg/kg] | Anti-sleep activity in mice (sleep in mice) | secondary action on the dog cardiovascular system [6] | Spasmolytic activity (papaverine hydrochloride = 1) (rat isolated duodenum) | spasmolytic activity for the rat isolated duodenum (in words) (rat isolated duodenum) | In vitro spasmolytic action on the rabbit aorta (rabbit aorta) | In vitro spasmolytic action on the rabbit isolated ear (rabbit isolated ear) | In vivo spasmolytic action on paw vessels of the dog (paw vessels of the dog) | In vitro adrenolytic action on the Guinea-pig seminal vesicle [10] | In vitro atropinic action on the Guinea-pig ileum (Guinea-pig ileum) | other results
O=C(O)CCN1CCN(CCOC(c2ccccc2)c2ccc(F)cc2)CC1 (stereo not drawn) [Derivative 5] | 800 | 22 | 0.6 | 160 | 100 | Nil | devoid of any secondary action | – | – | – | – | – | – | – | anorectic action in rats (Anorectic action in rats): absence of anorectic action; ED50 (aggressiveness in mice): 6.5 mg/kg; chronic toxicity ([7]; oral, 80 mg/kg daily): low chronic toxicity; tolerance in chronic administration ([7]; oral, 80 mg/kg daily): well tolerated; presence of a psychostimulating action ([8]; 6 adults): 5 out of 6; Nil results, number of cases ([8]; neurasthenia (1 case)): 1 cases; Excellent results, number of cases ([8]; neurotic depression (2 cases)): 1 cases; Good results, number of cases ([8]; neurotic depression (2 cases)): 1 cases; Excellent results, number of cases ([8]; school overwork (3 cases)): 2 cases; Good results, number of cases ([8]; school overwork (3 cases)): 1 cases
CCOC(=O)CCN1CCN(CCOC(c2ccc(F)cc2)c2ccc(F)cc2)CC1.Cl.Cl [Derivative 21, 1-(ethoxycarbonylethyl)-4[2(4,4'-difluorobenzhydryloxy)-ethyl]piperazine dihydrochloride] | 750 | 30 | 0.4 | > 100 | 70 | Nil | devoid of any secondary action | 8,5 | greatest | 5 | 1,5 | 30 | 4 | > 0,01 | spasmolytic activity of the papaverine type in the tests as a whole (in words) (rat isolated duodenum; tests as a whole): excellent spasmolytic activity; tolerance in chronic toxicity study ([7]; per os, 40 mg/kg, six months): perfectly well tolerated; In vitro anti-serotonin activity on the female rat uterus in oestrus [9]: 0,07; Improvement of the psychic state ([11]; arteritis of the lower limbs, 8 cases): 4 times; Improvement in intellectual activity [11, 12]: once; Improvement of the psychic state [11, 12]: twice; Improvement of motor disturbances ([11]; hemiplegia sequelae, 2 cases): 0; Improvement of the psychic state ([11]; hemiplegia sequelae, 2 cases): once
O=C(CN1CCN(CCOC(c2ccccc2)c2ccccc2)CC1)N1CCN(Cc2ccc3c(c2)OCO3)CC1 [Derivative 33, 1-(piperonylpiperazinocarbonylmethyl)-4-(2-benzhydryloxyethyl)piperazine trimaleate] | 600 | 25 | – | – | – | – | – | 10,5 | greatest | 5 | 0,5 | 9 | 6 | > 0,01 | –
